Assays:
MCF-7 tissueoids [1] = experiment: Morphology and growth of MCF-7 tissueoids on AXTEX-4D treated with doxorubicin; format: cell-based, human; details: 3 days
MCF-7 cells [2] = experiment: Prestoblue viability of MCF-7 2D monolayer culture; format: cell-based; details: Homo sapiens, MCF7, 1 μM doxorubicin, 48 hrs, read-out: viability (prestoblue, normalized with vehicle control as 100%)
MCF-7 tissueoids [3] = experiment: Prestoblue viability of MCF-7 tissueoids (3D) on AXTEX-4D
MCF-7 cells [4] = experiment: Morphology and growth of MCF-7 cells in 2D monolayer culture treated with doxorubicin; format: cell-based, human; details: MCF-7 2D monolayer, 3 days

With `COc1cccc2c1C(=O)c1c(O)c3c(c(O)c1C2=O)C[C@@](O)(C(=O)CO)C[C@@H]3O[C@H]1C[C@H](N)[C@H](O)[C@H](C)O1` [doxorubicin, Doxorubicin] the growth of tissueoids (MCF-7 tissueoids [1]; 2.5 μM doxorubicin) was “not inhibited”, the growth of tissueoids (MCF-7 tissueoids [1]; 5 μM doxorubicin) was “Partial growth inhibition” and the “tissueoid morphology at higher concentration” value (MCF-7 tissueoids [1]; higher concentration (5)) was “shrinking of the tissueoid was visible”. The viability at 1 µM (MCF-7 cells [2]) was 35%, the viability at 1 µM (MCF-7 tissueoids [3]; Homo sapiens, MCF7, 48 h, read-out: viability (prestoblue, normalized with vehicle control as 100%)) was roughly 80% and the “resistance of tissueoids compared to vehicle control” value (MCF-7 tissueoids [3]; MCF-7 tissueoids, 1 μM doxorubicin) was “partial resistance”. The “morphology (vacuoles) in 2D culture” value (MCF-7 cells [4]; 1 μM doxorubicin) was “Vacuoles were observed” and the “growth inhibition in 2D culture” value (MCF-7 cells [4]; vs DMSO vehicle control) was “Dose-dependent growth inhibition”.

Reference: patent US20200326330A1, “Device and method for multidimensional cell culture” (Premas Biotech Pvt Ltd, priority 2019, published 2020)
